What follows are molecules tested on KM12-luc cells (assay: Cell proliferation and growth inhibition assay (CCK-8) in KM12-luc). Conditions: KM12-Luc, 72 h, KM12-luc cells, treated with test compounds for 72 hrs, CCK-8 viability; read-out: NTRK IC50 in KM12-luc.
Format: cell-based
In short: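 Cells were grown at 37 °C, 5% CO2 with 10% FBS: MV-4-11 in IMDM, H1975 in RPMI 1640, KM12-luc in DMEM. Viability was read by CCK-8 (1-4 hrs reagent incubation, absorbance at OD450). IC50 came from a non-linear sigmoidal dose-response fit.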

Point of comparison: `CN(C)CCN(C)c1ccc(Nc2nc(-c3cn(C)c4ccccc34)c3cc[nH]c3n2)cc1N(C)C` [Compound 207, N^1-(2-(dimethylamino)ethyl)-N^1,N^2,N^2-trimethyl-N^4-(4-(1-methyl-1H-indol-3-yl)-7H-pyrrolo[2,3-d]pyrimidin-2-yl)benzene-1,2,4-triamine], IC50 348 nM. Against it:
- COc1cccc2c(-c3nc(Nc4ccc5c(c4)nc(C)n5CCN(C)C)ncc3C(F)(F)F)cn(C)c12 [Compound 387, 1-(2-(dimethylamino)ethyl)-N-(4-(7-methoxy-1-methyl-1H-indol-3-yl)-5-(trifluoromethyl)pyrimidin-2-yl)-2-methyl-1H-benzo[d]imidazol-5-amine] — 3.1-fold lower, 114 nM
- COc1cccc2c(-c3nc(Nc4ccc5c(c4)nc(C)n5CCN(C)C)ncc3C(F)(F)F)c[nH]c12 [Compound 380, 1-(2-(dimethylamino)ethyl)-N-(4-(7-methoxy-1H-indol-3-yl)-5-(trifluoromethyl)pyrimidin-2-yl)-2-methyl-1H-benzo[d]imidazol-5-amine] — 6.9-fold lower, 50.5 nM
- CC(=O)Nc1cc(Nc2ncc(C(F)(F)F)c(-c3cn(C)c4ccccc34)n2)ccc1N(CCN(C)C)C(C)=O [Compound 314a, N-(2-acetamido-4-((4-(1-methyl-1H-indol-3-yl)-5-(trifluoromethyl)pyrimidin-2-yl)amino)phenyl)-N-(2-(dimethylamino)ethyl)acetamide] — 5.5-fold lower, 63.2 nM
- CC(=O)Nc1cc(Nc2ncc(C(F)(F)F)c(-c3c[nH]c4ccccc34)n2)ccc1OCCN(C)C [Compound 304, N-(5-((4-(1H-indol-3-yl)-5-(trifluoromethyl)pyrimidin-2-yl)amino)-2-(2-(dimethylamino)ethoxy)phenyl)acetamide] — 4.6-fold lower, 75.1 nM
- CC(=O)Nc1cc(Nc2ncc(F)c(-c3c[nH]c4ccccc34)n2)ccc1N(C)CCN(C)C [Compound 259a, N-(2-((2-(dimethylamino)ethyl)(methyl)amino)-5-((5-fluoro-4-(1H-indol-3-yl)pyrimidin-2-yl)amino)phenyl)acetamide] — 5.3-fold lower, 65.7 nM
- CN(C)CCN(C)c1ccc(Nc2ncc(C(F)(F)F)c(-c3c[nH]c4ccccc34)n2)cc1N [Compound 297, N^4-(4-(1H-indol-3-yl)-5-(trifluoromethyl)pyrimidin-2-yl)-N^1-(2-(dimethylamino)ethyl)-N^1-methylbenzene-1,2,4-triamine] — 9.2-fold lower, 37.7 nM
- CC(=O)Nc1cc(Nc2ncc(Cl)c(-c3c[nH]c4ccccc34)n2)cc(F)c1N(C)CCN(C)C [Compound 441, N-(5-((5-chloro-4-(1H-indol-3-yl)pyrimidin-2-yl)amino)-2-((2-(dimethylamino)ethyl)(methyl)amino)-3-fluorophenyl)acetamide] — 14-fold lower, 24.9 nM
- CC(=O)Nc1cc(Nc2ncc(C(F)(F)F)c(-c3cn(C)c4ccc(C)cc34)n2)ccc1N(C)CCN(C)C [Compound 356, N-(5-((4-(1,5-dimethyl-1H-indol-3-yl)-5-(trifluoromethyl)pyrimidin-2-yl)amino)-2-((2-(dimethylamino)ethyl)(methyl)amino)phenyl)acetamide] — within 1.5-fold, 327 nM
- COc1cnc(Nc2ccc(N(C)CCN(C)C)c(NCC(F)(F)F)c2)nc1-c1cn(C)c2ccccc12 [Compound 276, N^1-(2-(dimethylamino)ethyl)-N^4-(5-methoxy-4-(1-methyl-1H-indol-3-yl)pyrimidin-2-yl)-N^1-methyl-N^2-(2,2,2-trifluoroethyl)benzene-1,2,4-triamine] — 2-fold higher, 679 nM
- CC(=O)Nc1cc(Nc2ncc(Cl)c(-c3cn(C)c4ccccc34)n2)ccc1N(C)C(=O)CCN(C)C [Compound 404, N-(2-acetamido-4-((5-chloro-4-(1-methyl-1H-indol-3-yl)pyrimidin-2-yl)amino)phenyl)-3-(dimethylamino)-N-methylpropanamide] — 13-fold lower, 26.5 nM
- Cc1cccc2c(-c3nc(Nc4ccc(N5CC[C@@H](N(C)C)C5)c(N)c4)ncc3Cl)cn(C)c12 [Compound R-431, (R)—N^1-(5-chloro-4-(1,7-dimethyl-1H-indol-3-yl)pyrimidin-2-yl)-4-(3-(dimethylamino)pyrrolidin-1-yl)benzene-1,3-diamine] — 11-fold lower, 31.8 nM
- CCC(=O)Nc1cc(Nc2ncc(C(F)(F)F)c(-c3c[nH]c4cc(F)ccc34)n2)ccc1N(CC)CCN(C)C [Compound 330a, N-(2-((2-(dimethylamino)ethyl)(ethyl)amino)-5-((4-(6-fluoro-1H-indol-3-yl)-5-(trifluoromethyl)pyrimidin-2-yl)amino)phenyl)propionamide] — within 1.5-fold, 292 nM
- CC(=O)Nc1cc(Nc2ncc(Cl)c(-c3c[nH]c4ccccc34)n2)ccc1NC(=O)CN(C)C [Compound 393, N-(2-acetamido-4-((5-chloro-4-(1H-indol-3-yl)pyrimidin-2-yl)amino)phenyl)-2-(dimethylamino)acetamide] — 15-fold lower, 23.1 nM
- COc1cnc(Nc2ccc(N(C)CCN(C)C)c(NC(C)=O)c2)nc1-c1cn(C)nc1C [Compound 289, N-(5-((4-(1,3-dimethyl-1H-pyrazol-4-yl)-5-methoxypyrimidin-2-yl)amino)-2-((2-(dimethylamino)ethyl)(methyl)amino)phenyl)acetamide] — higher, > 10000 nM
- CCN(CCN(C)C)c1c(F)cc(Nc2nc(-c3cn(C)c4ccccc34)c3ccn(C)c3n2)cc1NC(C)=O [Compound 195b, N-(2-((2-(dimethylamino)ethyl)(ethyl)amino)-3-fluoro-5-((7-methyl-4-(1-methyl-1H-indol-3-yl)-7H-pyrrolo[2,3-d]pyrimidin-2-yl)amino)phenyl)acetamide] — 1.6-fold higher, 561 nM

Same assay, conditions: KM12-Luc, 72 h, read-out: NTRK IC50 in KM12-luc

Work on `CCN(CCN(C)C)c1ccc(Nc2nc(-c3cn(C)c4ccc(F)cc34)c3cc[nH]c3n2)cc1NC(C)=O` [Compound 227c, N-(2-((2-(dimethylamino)ethyl)(ethyl)amino)-5-((4-(5-fluoro-1-methyl-1H-indol-3-yl)-7H-pyrrolo[2,3-d]pyrimidin-2-yl)amino)phenyl)acetamide] yielded an IC50 of 436 nM.

Same assay, conditions: KM12-luc cells, treated with test compounds for 72 hrs, CCK-8 viability; read-out: NTRK IC50 in KM12-luc

`COc1cccc2c(-c3nc(Nc4ccc(N5CC[C@@H](N(C)C)C5)c(N)c4)ncc3Cl)cn(C)c12` [Compound R-439, (R)—N^1-(5-chloro-4-(7-methoxy-1-methyl-1H-indol-3-yl)pyrimidin-2-yl)-4-(3-(dimethylamino)pyrrolidin-1-yl)benzene-1,3-diamine] showed an IC50 of 128 nM.

Each molecule was assayed on H1975 cells (assay: Cell proliferation and growth inhibition assay (CCK-8) in H1975). Conditions: Homo sapiens, NCI-H1975, 72 h, treated with test compounds for 72 hrs, CCK-8 viability, read-out: EGFR IC50 in H1975.
Format: cell-based
Method: MV-4-11 and H1975 cells were obtained from the American Type Culture Collection and KM12-luc cells were obtained from JCRB Cell Bank. All cell lines were maintained at 37° C. with 5% C02, in media supplemented with 10% fetal bovine serum and penicillin (100 units/mL) and streptomycin (100 μg/mL). MV-4-11 cells were maintained in Iscove's Modified Dubecco's Medium, H1975 cells were cultured with RPMI 1640 media, and KM12-luc cells were maintained in Dulbecco's Modification of Eagle's Medium. CCK-8 reagent was obtained from Yeasen.
Cell proliferation was assessed by CCK-8 assay (Yeasen) per the manufacturer's instructions. The MV-4-11 (AML), H1975, and KM12-luc cells were seeded at 30,000, 3,000 and 2,500 cells per well onto 96-well plates, and after a 24 h incubation, the cells were treated with test compounds for 72 hrs. Cell viability was assayed by incubating the cells with CCK-8 reagent for 1-4 hrs. Absorbance was measured at OD450 using the Beckman DTX880. The data was calculated using GraphPad Prism version 6.01. The IC50 values were fitted using a non-linear regression model with a sigmoidal dose response.

Point of comparison: `CCC(=O)Nc1cc(Nc2nc(-c3c[nH]c4c(OC)cccc34)c3cc[nH]c3n2)ccc1N(C)CCN(C)C` [Compound 518, N-(2-((2-(dimethylamino)ethyl)(methyl)amino)-5-((4-(7-methoxy-1H-indol-3-yl)-7H-pyrrolo[2,3-d]pyrimidin-2-yl)amino)phenyl)propionamide], IC50 406 nM. Against it:
- CCC(=O)Nc1cc(Nc2ncc(C(F)(F)F)c(-c3c[nH]c4c(OC)cccc34)n2)ccc1N(C)CCN(C)C [Compound 543, N-(2-((2-(dimethylamino)ethyl)(methyl)amino)-5-((4-(7-methoxy-1H-indol-3-yl)-5-(trifluoromethyl)pyrimidin-2-yl)amino)phenyl)propionamide] — 6-fold lower, 67.4 nM
- CCC(=O)Nc1cc(Nc2nccc(-c3c[nH]c4c(OC)cccc34)n2)ccc1N(C)CCN(C)C [Compound 555, N-(2-((2-(dimethylamino)ethyl)(methyl)amino)-5-((4-(7-methoxy-1H-indol-3-yl)pyrimidin-2-yl)amino)phenyl)propionamide] — 5.5-fold higher, 2250 nM
- COc1cnc(Nc2ccc(N(C)CCN(C)C)c(NC(C)=O)c2)nc1-c1c[nH]c2c(C)cccc12 [Compound 533, N-(2-((2-(dimethylamino)ethyl)(methyl)amino)-5-((5-methoxy-4-(7-methyl-1H-indol-3-yl)pyrimidin-2-yl)amino)phenyl)acetamide] — 2.7-fold higher, 1110 nM
- CN(C)CCN(C)c1ccc(Nc2nccc(-c3c[nH]c4c(F)cccc34)n2)cc1N [Compound 545, N^1-(2-(dimethylamino)ethyl)-N^1-methyl-N^4-(4-(7-fluoro-1H-indol-3-yl)pyrimidin-2-yl)benzene-1,2,4-triamine] — 2.2-fold higher, 876 nM
- CCC(=O)Nc1cc(Nc2ncc(F)c(-c3c[nH]c4c(OC)cccc34)n2)ccc1N(C)CCN(C)C [Compound 530, N-(2-((2-(dimethylamino)ethyl)(methyl)amino)-5-((5-fluoro-4-(7-methoxy-1H-indol-3-yl)pyrimidin-2-yl)amino)phenyl)propionamide] — 1.9-fold higher, 769 nM
- CCC(=O)Nc1cc(Nc2ncc(F)c(-c3c[nH]c4c(F)cccc34)n2)ccc1N(C)CCN(C)C [Compound 522, N-(2-((2-(dimethylamino)ethyl)(methyl)amino)-5-((5-fluoro-4-(7-fluoro-1H-indol-3-yl)pyrimidin-2-yl)amino)phenyl)propionamide] — 2.5-fold higher, 999 nM
- Cc1cccc2c(-c3nc(Nc4ccc(N(C)CCN(C)C)c(N)c4)ncc3F)c[nH]c12 [Compound 524, N^1-(2-(dimethylamino)ethyl)-N^4-(5-fluoro-4-(7-methyl-1H-indol-3-yl)pyrimidin-2-yl)-N^1-methylbenzene-1,2,4-triamine] — within 1.5-fold, 425 nM

— patent US20250136576A1, “Heterocyclic Compounds and Uses Thereof” (ACEA Therapeutics, Inc., priority 2021, published 2025)
